These results are taken from US20030022921A1, “Stable pharmaceutical formulation comprising torsemide modification II” (priority 2001, published 2003).

Where only a bound is given, the exact number is not on record here.

The data set is described as follows: Polymorphic content by XRPD in bulk torsemide modification II on storage. On the set-up: key to Polymorphic form detected (I or II): “I” is Torsemide Modification I; “II” is Torsemide Modification II. The conditions noted are these: for Polymorphic form detected (I or II) / Polymorph Content / Polymorph Content: amount of Torsemide Modification I: bulk. Type of data set: physicochemical. From the text:
1. The present procedure is used for the detection and quantitative determination of the presence of torsemide modification I in tablets wherein the active ingredient is high purity torsemide modification II. The present procedure is also used for the detection and quantitative determination of torsemide modification I in bulk high purity torsemide modification II, which is to be used as the active ingredient in tablets. The present method is based on the unique x-ray powder diffraction pattern of torsemide modification I that is characterized by a strong peak at two-theta 5.7±0.2°, the presence of which indicates the presence of torsemide modification I in a sample of high purity torsemide modification II. 2.1 Instrument: Philips x-ray powder diffractometer. Goniometer model PW 1050/70, Cu-tube, curved graphite monochromator. 2.2 Sample holder: A standard aluminum sample holder with a rectangular cavity 20*15*0.3 mm inside it. Scanning range: 2θ=4° to at least 22° Step: 0.05° Step duration: 0.5 4.1 Gently grind a small amount of sample powder in an agate mortar with the pestle. 4.2 Fill the rectangular cavity on the sample holder with the powder.

Setting [1] is: first storage column (condition not given), 1 week.
Where [2] appears, read: storage condition not given, 1 month.
Setting [3] is: storage condition not given, 2 months.
[4] abbreviates: storage condition not given, 2 weeks.

For the compound `Cc1cccc(Nc2ccncc2S(=O)(=O)NC(=O)NC(C)C)c1` [Bulk Lot No. 851700100, 1-Isopropyl-3-[(4-m-toluidino-3-pyridyl)-sulfonyl]urea], the “Polymorphic form detected (I or II)” value reads like this: (storage 40° C., 75% RH, 1 month) “II”; (storage 40° C., 75% RH, 2 months) “II”; (storage 40° C., 75% RH, 2 weeks) “II”; (storage 40° C., 75% RH, 3 months) “II”; (storage 40° C., 75% RH, 4 months) “II”; (storage 55° C., 1 month) “II”. The “Polymorphic form detected (I or II)” value reads like this: (storage 55° C., 1 week) “II”; (storage 55° C., 2 months) “II”; (storage 55° C., 2 weeks) “II”; (storage 55° C., 3 months) “II”; (storage 55° C., 4 months) “II”. Under “storage at 40° C. at 75% relative humidity for 3 months, tablet formulations or bulk active ingredient”, the “Rearrangement into different polymorphic forms of torsemide” value is reported as “does not undergo any significant rearrangement”. The “Polymorphic stability during storage under stress conditions” value (listed as high purity torsemide modification II) is given as “stable during storage under stress conditions for at least 3 months”.
Take `Cc1cccc(Nc2ccncc2S(=O)(=O)NC(=O)NC(C)C)c1` [Bulk No. 851700200, 1-Isopropyl-3-[(4-m-toluidino-3-pyridyl)-sulfonyl]urea]: the “Polymorph Content” value reads like this: (first storage column (condition not given), 1 month) “I + II”; under setting [1], “II >> I”; (first storage column (condition not given), 2 months) “I + II”; (first storage column (condition not given), 2 weeks) “I + II”; (first storage column (condition not given), 3 months) “I > II”; (first storage column (condition not given), 4 months) “I + II”. In addition, the “Polymorph Content” value by setting is: under setting [2], “II >> I”; under setting [3], “II >> I”; under setting [4], “II >> I”; (storage condition not given, 3 months) “I + II”; (storage condition not given, 4 months) “I + II”; (t = 0) “II >>> I”. The “Polymorph Content: amount of Torsemide Modification I” value is, setting by setting: under setting [1], about 0.4%; under setting [2], about 1%; under setting [3], about 6%; under setting [4], about 0.5%; (t = 0) under 0.3%. Besides, the “Polymorphic stability during storage under stress conditions” value (listed as torsemide modification II that contains trace amounts of torsemide modification) is “not stable during storage under stress condition for at least 3 months”.
